Assay results reported in patent publication US5281710A, “Dynemicin analogs: synthesis, methods of preparation and use” (The Scripps Research Institute, priority 1992, dated 1994).
Like-named read-outs stand apart in the source and are kept apart here.

Tests used:
[1] = test system: SK-Mel-28, M-14, M-21, Capan-1, Ovcar-3, Ovcar-4, UCLA-P-3, U-87, U-251 and Molt-4 cell lines; assay type: cell-based; conditions: ten tumor cell lines
Description: In other studies, IC50 values were determined for the anti-tumor agents dynemicin A, calicheamicin γ1^I, taxol, vinblastine/vincristine, doxorubicin, actinomycin D and bleomycin sulfate against the SK-Mel-28, M-14, M-21, Capan-1, Ovcar-3, Ovcar-4, UCLA-P-3, U-87, U-251 and Molt-4 cell lines.

[2] = test system: P-388 mouse lymphoma cells; assay: Sulforhodamine B cytotoxicity, P-388; assay type: cell-based; conditions: Mus musculus, P388; Table 7, P-388; read-out: Cytotoxicity (IC50)
Description: (§1) In addition to the screening already discussed, several of the before-described compounds and chimeras were screened against several or all of a panel of ten to twenty-five cancerous cell lines as target cells and seven "normal" cell preparations. This screening utilized a sulforhodamine B cytotoxidity assay as discussed below.
(§2) IC50 values; i.e., the concentration of Compound required to kill one-half of the treated cells, were then calculated.

[3] = test system: MCF-7 breast carcinoma cells; assay: Sulforhodamine B cytotoxicity, MCF-7; assay type: cell-based; conditions: Table 7, MCF-7, read-out: Cytotoxicity (IC50)
Description: as §1, §2

SK-Mel-28 melanoma cells = assay: Sulforhodamine B cytotoxicity, SK-Mel-28; assay type: cell-based; conditions: Homo sapiens
Description: as §1, §2

[4] = test system: Ovcar-3 ovarian carcinoma cells; assay: Sulforhodamine B cytotoxicity, Ovcar-3; assay type: cell-based; conditions: read-out: Cytotoxicity (IC50)
Description: as §1, §2

cancer cell lines = assay: cells; assay type: cell-based; conditions: Average data obtained from 5~10 cell lines; read-out: IC50 (average)
Description: as §1
SULFORHODAMINE B CYTOTOXICITY ASSAY
a. Stock drug solutions were prepared by dissolving drug in the appropriate solvent (determined during chemical characterization studies) and sterile filtering the drug-solvent solution through a sterile 0.2μ filter unit. An aliquot was taken from each filtered drug solution and the O.D. was measured to determine the drug concentration.
f. Incubate (37° C., 5-10 percent CO2 in humidified incubator) plates for a total of 72 hours. Check plates at 24 hour intervals microscopically for signs of cytotoxicity.
as §2
All other cells or cell lines were obtained from the American Type Culture Collection (ATCC) (all except CHO cells are human or mouse cancer cell lines as described by the ATC).
Tables 1 and 2 herein below provide average IC50 data from five to all ten of the above cancer cells lines for fused ring enediyne compounds disclosed herein. Those tables provide a generic structure and a description of the R group of that generic structure for each compound. Compound numbers as noted hereinbefore are also provided. Table 3 contains data for two fused-ring enediyne compounds (Compounds 47 and 120) as well as data for six chimers. Table 4 contains cancer cell and noraml cell cytotoxicity data for one select fused ring enediyne, Compound 153 against a number of "normal" cell preparations and tumor cell lines. Table 5 contains cancer cell and normal cell cytotoxicity data for another fused ring enediyne, Compound 250 against a similar panel of cells.

[5] = test system: UCLA P-3 non-small cell lung carcinoma cells; assay: Sulforhodamine B cytotoxicity, UCLA-P3; assay type: cell-based, human; conditions: read-out: Cytotoxicity (IC50)
Description: as §1, §2
UCLA P-3 Dr. D. Morton, University of California, […]

[6] = test system: HL-60 promyeocytic leukemia cells; assay: Sulforhodamine B cytotoxicity, HL-60; assay type: cell-based
Description: as §1, §2

in vitro = assay type: cell-based, human; conditions: human, nhdf cells; Table 7, NHDF; read-out: Cytotoxicity (IC50)
Description: as §1, §2
(§3) NHDF Normal human dermal fibroblasts

[7] = Sulforhodamine B cytotoxicity, CHO; assay type: cell-based, Chinese hamster; conditions: hamster, cho cells; Table 7, CHO; read-out: Cytotoxicity (IC50)
Description: as §1, §2

[8] = test system: H-322 lung carcinoma cells; assay: Sulforhodamine B cytotoxicity, H-322; assay type: cell-based; conditions: NCI-H322; Table 7, H-322; read-out: Cytotoxicity (IC50)
Description: as §1, §2

[9] = test system: HT-29 colon carcinoma cells; assay: Sulforhodamine B cytotoxicity, HT-29; assay type: cell-based; conditions: Table 7, HT-29, read-out: Cytotoxicity (IC50)
Description: as §1, §2

[10] = test system: Capan-1 pancreatic carcinoma cells; assay: Sulforhodamine B cytotoxicity, Capan-1; assay type: cell-based
Description: as §1, §2

[11] = test system: P-388 leukemia cells in Balb/c mice; assay: In vivo P-388 leukemia in Balb/c mice; set-up: species or system mouse; conditions: single dose
Description: In an in vivo study whose results are shown in FIG. 8, Balb/c mice were injected intra-peritoneally with 10^6 P-388 leukemia cells per mouse (the cells were suspended in 100 μl RPMI medium) on day zero. Therapy was started on day 1 by injecting each group of four animals with the indicated dose of Compound 45, which was administered only once in this assay. The course of therapy was followed by tumor-induced weight change in the animals and by recording death incidents (arrows). […] At the dose of 25 mg/kg Compound 45, the increase in life span over the control group was 175 percent (therapeutic group/control group).

φX174 Form I DNA = assay: φX174 supercoiled DNA cleavage, agarose gel; assay type: biochemical; conditions: for DNA cleavage: 37° C.
Description: The ethereal solution of Compound 40 produced by the LiAlH4 reduction of Compound 21 (39 mg, 0.10 mmol) was evaporated in vacuo to dryness and the residue dissolved in THF (4 mL) to give a 25 mM solution of Compound 40, assuming complete conversion of Compound 21. […]
Thus, a vial containing a 50 micromolar per base pair solution […] of the same buffer solution and 2.0 microliters of a 5.0 millimolar ethanol solution of Compound 40.
[…] A 2.0 microliter portion of glycerol loading buffer solution containing bromothymol blue indicator was added to each vial. A 10 microliter aliquot was then drawn from each. Gel electrophoresis analysis of the aliquots was performed using a 1.0 percent agarose gel with ethidium bromide run at 115 volts for 1 hour. DNA cleavage was indicated by the formation of nicked relaxed circular DNA (form II) or linearized DNA (form III), which was detected by visual inspection of the gel under 310 nanometer ultraviolet light using ethidium bromide.

[12] = test system: MCF-7(ADR) breast carcinoma cells; assay: Sulforhodamine B cytotoxicity, MCF-7/ADR; assay type: cell-based; conditions: Homo sapiens, NCI/ADR-RES, Adriamycin resistant
Description: as §1, §2

[13] = Lethal dose / toxicity in mice; assay type: in vivo, mouse
[14] = test system: 93 base-pair Sal I - Sph I double-stranded DNA fragment of pBR322; assay: DNase I footprinting of oligosaccharide glycosides; assay type: binding; conditions: 37° C., 30 minutes pre-incubation
Source text: Footprinting studies the O-methyl glycosides of saccharides A, an analog of C, F, G and H, Compounds A-1, C'-1, F-1, G-1 and H-1, respecitvely, as shown below, were designed to probe these questions.
The oligosaccharides A-1, C'-1, F-1, G-1 and H-1 were obtained by chemical synthesis following procedures similar to those discussed before. The 93 base-pair Sal I - Sph I double-stranded DNA fragment of pBR322 was obtained enzymatically and was [5-^32 P]-labeled on one strand. pBR322 DNA was cleaved at the unique Sal I site, dephosphorylated using calf intestine phosphatase, (5'-^32 P]-phosphorylated using T4 polynucletide kinase and [g-^32 P] ATP (4.5 ^m Ci/pmol) , and cleaved again at the unique Sph I site. These precursors generated a 93 base-pair double-stranded fragment, (5'-^32 P)-labeled at the Sal I end, which was purified by gel electrophosresis in a nondenaturing 10 percent polyacrylamide gel and subsequent column chromatography on Sephadex G-25. The oligosaccharides were pre-incubated with the DNA fragment at 37° C. for 30 minutes and DNase I was added to cleave the DNA and generate footprinting patterns by autoradiography.
The degree of protection against DNase I digestion offered by both the natural and unnatural stereoisomers was determined by comparing the amount of radioactivity in adjacent lanes along the electrophoresis gel. […]

[15] = test system: NHDF normal human dermal fibroblasts; assay: in vitro; assay type: cell-based; conditions: Table 7, NHDF
Description: as §1, §2, §3

[16] = test system: CHO Chinese hamster ovary cells; assay: Sulforhodamine B cytotoxicity, CHO; assay type: cell-based; conditions: Table 7, CHO
Description: as §1, §2

[17] = test system: MOLT-4 (Leukemia) cell line; assay: cells; assay type: cell-based; conditions: read-out: Cytotoxicity (IC50)
Description: as §1, §2

[18] = test system: tumor cells and "normal" cells; assay: Relative activity against tumor cells and normal cells; assay type: cell-based
Source text: In contrast, 100 percent of normal human mammary epithelial cells (HMEC) were viable at the same concentration.

[19] = SK-MEL-28, Table 7, SK-Mel-28, read-out: Cytotoxicity (IC50)
[20] = Homo sapiens, OVCAR-3, Table 7, Ovcar-3
[21] = Homo sapiens, UCLA P-3, Table 7, UCLA-P3
[22] = Homo sapiens, HL-60, Table 7, HL-60, read-out: Cytotoxicity (IC50)
[23] = Homo sapiens, CAPAN-1, Table 7, Capan-1, read-out: Cytotoxicity (IC50)
[24] = 5.0 mM, pH 8.5 and 9.0, 48 hours

Compound: bleomycin sulfate [reference compound]
- relative potency among agents across cell lines [1]: considerably less active against all the cell lines

Compound: O=C(Oc1ccccc1)N1c2ccccc2C23OC24CCCC3C#C/C=C\C#CC14 (stereo not drawn) [Compound 21]
- IC50 [2]: 0.098 µM
- IC50 ([3]; Homo sapiens, MCF7, 72 h): 3.1 µM
- IC50 (SK-Mel-28 melanoma cells; [19]): 63 µM
- IC50 [4, 20]: 0.78 µM
- IC50 (cancer cell lines): 5 µM
- IC50 [5, 21]: 0.78 µM
- IC50 [6, 22]: 0.098 µM
- CC50 (in vitro): 6.3 µM
- CC50 [7]: 6.3 µM
- IC50 [8]: 3.1 µM
- IC50 ([9]; Homo sapiens, HT-29, 72 h): 0.39 µM
- IC50 [10, 23]: 0.078 µM

Compound: O=C(OCCS(=O)(=O)c1ccccc1)N1c2ccccc2C23OC24CCCC3C#C/C=C\C#CC14 (stereo not drawn) [Compound 45]
- IC50 (SK-Mel-28 melanoma cells; SK-MEL-28, SK-Mel-28, read-out: IC50): 6.3 µM
- IC50 (cancer cell lines): 0.2 µM
- IC50 ([6]; Homo sapiens, HL-60, HL-60, read-out: IC50): 3.9 µM
- deaths / weight course ([11]; 12 mg/kg): three of the four animals died
- increase in life span over control group ([11]; 25 mg/kg): 175%
- time to death ([11]; 50 mg/kg, rapid weight loss): ≤ 8 days
- DNA cleavage (φX174 Form I DNA; pH 8.5, 24 or 48 hours): strong DNA cleavage activity
- DNA cleavage potency (φX174 Form I DNA; pH 8.5, 1000 and 100 μM): comparable potencies
- IC50 [12]: 1.6 µM
- IC50 ([10]; Homo sapiens, CAPAN-1, Capan-1, read-out: IC50): 1.6 µM
- toxicity relative to naturally occurring enediynes [13]: significantly less than naturally occurring enediynes
- LD50 ([13]; mouse, in vivo): ~50 mg/kg

Compound: CCNC1COC(OC2C(OC)OC(C)C(NOC3CC(O)C(SC(=O)c4c(C)c(I)c(OC5OC(C)C(O)C(OC)C5O)c(OC)c4OC)C(C)O3)C2O)CC1OC (stereo not drawn) [Compound G-1]
- protection of DNA against DNase I [14]: no protection at the same concentrations

Compound: CC(C)(COC(=O)N1c2ccccc2[C@@]23O[C@]24CCC[C@H]3C#C/C=C\C#C[C@H]14)S(=O)(=O)c1ccccc1 (relative stereo) [Compound 429]
- IC50 [2]: 13 µM
- IC50 ([3]; Homo sapiens, MCF7, 72 h): 25 µM
- IC50 (SK-Mel-28 melanoma cells; [19]): < 100 µM
- IC50 [4, 20]: 50 µM
- IC50 [5, 21]: 50 µM
- IC50 [6, 22]: 25 µM
- DNA cleavage (φX174 Form I DNA; [24]): no DNA cleaving ability
- Cytotoxicity (IC50) [15]: Non-Toxic
- Cytotoxicity (IC50) [16]: Non-Toxic
- IC50 [8]: 50 µM
- IC50 ([9]; Homo sapiens, HT-29, 72 h): 25 µM
- IC50 [10, 23]: 50 µM
- IC50 ([17]; Homo sapiens, MOLT-4, Table 7, Molt-4): 100 µM

Compound: CCNC1COC(OC2C(OC)OC(C)C(NOC3CC(O)C(SC(=O)c4c(C)c(I)c(OC5OC(C)C(O)C(OC)C5O)c(OC)c4OC)C(C)O3)C2O)CC1OC (stereo not drawn) [Compound F-1]
- protection of DNA against DNase I [14]: concentration-dependent protection

Compound: CC(COC(=O)N1c2ccccc2C23OC24CCCC3C#CC=CC#CC14)S(=O)(=O)c1ccccc1 (stereo not drawn) [Compound 427]
- IC50 [2]: 1.6 µM
- IC50 ([3]; 4320 min): 25 µM
- selectivity between normal and cancer cells (qualitative) [18]: reduced cytotoxicity of Compound 427 against normal cell lines while maintaining considerable activity against cancer cell lines
- IC50 (SK-Mel-28 melanoma cells; [19]): 50 µM
- IC50 ([4]; Table 7, Ovcar-3): 3.1 µM
- IC50 ([5]; Table 7, UCLA-P3): 3.1 µM
- IC50 ([6]; Table 7, HL-60, read-out: Cytotoxicity (IC50)): 0.78 µM
- DNA cleavage (φX174 Form I DNA; [24]): greatly reduced in vitro DNA cleaving ability
- CC50 (in vitro): < 100 µM
- CC50 [7]: < 100 µM
- IC50 [8]: 13 µM
- IC50 ([9]; 4320 min): 0.78 µM
- IC50 ([10]; Table 7, Capan-1, read-out: Cytotoxicity (IC50)): 3.1 µM
- IC50 ([17]; Table 7, Molt-4): 0.001 µM
